Data as given in PMC7037283, “Introduction of Mercaptoethyl at Sorafenib Pyridine-2-Amide Motif as a Potentially Effective Chain to Further get Sorafenib-PEG-DGL” (Molecules, 2020).

Experiments:
HepG2 = experiment: MTT anti-proliferative assay, HepG2; assay type: cell-based; settings: Homo sapiens, 48 h treatment
Method: (§1) The in vitro anti-proliferation of the chemical compounds was measured by the MTT reagent. Briefly, 5 × 10^3 cells in 100 μL of medium per well were plated in 96-well plates. After being incubated for 24 h at 37 °C, the cells were treated with different concentration of tested compound or DMSO (as negative control) for 48 h. Then the medium with compound or DMSO was replaced with 200 μL of fresh medium containing 10% MTT (5 mg/mL in PBS) in each well and incubated at 37 °C for 4 h. Last, the MTT-containing medium was discarded and 150 μL of DMSO per well was added to dissolve the formazan crystals newly formed. Absorbance of each well was determined by a microplate reader (Synergy H4, Bio-Tek) at a 570 nm wavelength. The inhibition rates of proliferation were calculated with the following equation:Inhibition ratio (%) = (ODDMSO−ODcompd)/(ODDMSO−ODblank) × 100(1)
(§2) The concentration of the compounds that inhibited cell growth by 50% (IC50) was calculated using GraphPad Prism, version 6.0.

Huh7 = experiment: MTT anti-proliferative assay, Huh7; assay type: cell-based; settings: Homo sapiens, Huh-7, 48 h treatment
Method: as §1, §2

MCF-7 = experiment: MTT anti-proliferative assay, MCF-7; assay type: cell-based; settings: Homo sapiens, MCF7, 48 h treatment
Method: as §1, §2

[1] = tested on: MDA-MB-231 (triple negative breast cancer); experiment: MTT anti-proliferative assay, MDA-MB-231; assay type: cell-based; settings: Homo sapiens, 48 h treatment
Method: as §1, §2

[2] = tested on: Hela (human cervical carcinoma); experiment: MTT anti-proliferative assay, Hela; assay type: cell-based; settings: 48 h treatment
Method: as §1, §2

A549 = experiment: MTT anti-proliferative assay, A549; assay type: cell-based; settings: Homo sapiens, 48 h treatment
Method: as §1, §2

[3] = tested on: mouse melanoma cell line B16F10; experiment: MTT anti-proliferative assay, B16F10; assay type: cell-based; settings: B16-F10, 48 h treatment
Method: as §1, §2

[4] = tested on: HUVEC (Human Umbilical Vein Endothelial Cells); experiment: MTT anti-proliferative assay, nontumorigenesis cells HUVEC; assay type: cell-based; settings: 48 h treatment
Method: as §1, §2

293T = experiment: MTT anti-proliferative assay, nontumorigenesis cells 293T; assay type: cell-based; settings: Homo sapiens, HEK-293T, 48 h treatment
Method: as §1, §2

Row | IC50 (HepG2) [µM] | IC50 (Huh7) [µM] | IC50 (MCF-7) [µM] | IC50 [1] [µM] | IC50 [2] [µM] | IC50 (A549) [µM] | IC50 [3] [µM] | melting point [°C] | SMILES | IC50 [4] [µM] | IC50 (293T) [µM]
1 | 80.1 | > 500 | > 500 | > 500 | > 500 | 46.2 | > 500 | 139 to 141 | CC(CO)NNC(=O)c1cc(Oc2ccc(NC(=O)Nc3ccc(Cl)c(C(F)(F)F)c3)cc2)ccn1 (stereo not shown) [Compound 15a, 1-(4-Chloro-3-(trifluoromethyl)phenyl)-3-(4-((2-(2-(1-hydroxypropan-2-yl)hydrazine-1-carbonyl)pyridin-4-yl)oxy)phenyl)urea] | 320 | 1580
2 | > 500 | > 500 | > 500 | > 500 | > 500 | > 500 | > 500 | 89 to 92 | CC(CCO)NNC(=O)c1cc(Oc2ccc(NC(=O)Nc3ccc(Cl)c(C(F)(F)F)c3)cc2)ccn1 (stereo not shown) [Compound 15b, 1-(4-Chloro-3-(trifluoromethyl)phenyl)-3-(4-((2-(2-(4-hydroxybutan-2-yl)hydrazine-1-carbonyl)pyridin-4-yl)oxy)phenyl)urea] | 1250 | 559

Second part, the molecule before the results:

Row | SMILES | IC50 (HepG2) [µM] | IC50 (Huh7) [µM] | IC50 (MCF-7) [µM] | IC50 [1] [µM] | IC50 [2] [µM] | IC50 (A549) [µM] | IC50 [3] [µM] | melting point [°C] | IC50 [4] [µM] | IC50 (293T) [µM]
3 | O=C(Nc1ccc(Oc2ccnc(C(=O)NCCO)c2)cc1)Nc1ccc(Cl)c(C(F)(F)F)c1 [Compound 10a, N-(2-hydroxyethyl)-4-(4-(3-(4-chloro-3-(trifluoromethyl)phenyl)ureido)phenoxy)picolinamide] | 70.7 | 319 | 471 | > 500 | > 500 | 287 | > 500 | 193 to 195 | 583 | 643
4 | O=C(Nc1ccc(Oc2ccnc(C(=O)NCCS)c2)cc1)Nc1ccc(Cl)c(C(F)(F)F)c1 [Compound 10b, N-(2-mercaptoethyl)-4-(4-(3-(4-chloro-3-(trifluoromethyl)phenyl)ureido)phenoxy) picolinamide] | 282 | 58.8 | 159 | 295 | 63.7 | 447 | > 500 | – | 197 | 135
5 | O=C(Nc1ccc(Oc2ccnc(C(=O)NCCCO)c2)cc1)Nc1ccc(Cl)c(C(F)(F)F)c1 [Compound 10c, N-(3-hydroxypropyl)-4-(4-(3-(4-chloro-3-(trifluoromethyl)phenyl)ureido)phenoxy)picolinamide] | 90.1 | 88.4 | 268 | 330 | 233 | > 500 | 449 | 103 to 105 | 329 | 454
6 | CNC(=O)c1cc(Oc2ccc(NC(=O)Nc3ccc(Cl)c(C(F)(F)F)c3)cc2)ccn1 [Sorafenib] | 24.1 | 19.5 | 37.2 | 12.3 | 49.5 | 17.4 | 17.3 | – | 35.5 | 16.1
